Measured values taken from patent publication US20230140216A1, “COMBINATION THERAPY FOR TREATING MPS1” (GAIN THERAPEUTICS SA, priority 2020, published 2023).

Target: T1, Recombinant human α-L-iduronidase protein (Homo sapiens, UniProt P35475)
T1 construct: purchased R&D
T1 sequence (P35475 28-653): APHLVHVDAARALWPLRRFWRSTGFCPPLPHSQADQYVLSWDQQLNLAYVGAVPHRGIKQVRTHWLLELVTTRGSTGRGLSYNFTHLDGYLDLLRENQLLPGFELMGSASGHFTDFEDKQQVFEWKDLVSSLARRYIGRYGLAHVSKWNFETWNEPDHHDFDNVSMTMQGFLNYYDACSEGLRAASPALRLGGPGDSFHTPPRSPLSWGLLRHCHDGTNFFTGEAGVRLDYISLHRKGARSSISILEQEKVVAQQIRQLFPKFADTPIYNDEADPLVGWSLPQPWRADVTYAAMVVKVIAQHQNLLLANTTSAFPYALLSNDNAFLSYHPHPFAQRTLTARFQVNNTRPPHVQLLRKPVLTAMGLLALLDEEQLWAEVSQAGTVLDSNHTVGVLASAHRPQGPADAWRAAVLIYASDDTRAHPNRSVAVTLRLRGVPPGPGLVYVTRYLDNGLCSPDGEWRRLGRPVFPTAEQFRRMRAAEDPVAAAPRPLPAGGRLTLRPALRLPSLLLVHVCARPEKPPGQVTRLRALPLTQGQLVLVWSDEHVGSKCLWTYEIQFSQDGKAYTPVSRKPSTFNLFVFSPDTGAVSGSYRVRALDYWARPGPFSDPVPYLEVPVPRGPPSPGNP
Test: Differential scanning fluorimetry (DSF) thermal stabilization;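 note: Classes count stabilization of α-L-iduronidase despite the GALC label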
Assay type: binding
Conditions: ΔTm class
Experimental: The capacity of Compounds of the Disclosure to stabilize α-L-iduronidase was assessed by differential scanning fluorimetry technique. The thermal denaturation of purified human native enzyme was monitored in the presence of the extrinsic fluorescent probe SYPRO Orange (Sigma-Aldrich, St. Louis, MO). The tested compounds were dissolved in 100% DMSO and diluted into the protein buffer to achieve final concentrations of 1% DMSO.
Recombinant human α-L-iduronidase protein (purchased from R&D) 12.5 µL of 1.5 µM in 100 mM Hepes 20 mM MgCl2 pH 7 (protein final concentration 0.75 µM) with Sypro Orange 10X and 12.5 µl of the different compound solutions were dispensed into 96-well PCR-plates. The intensity of SYPRO Orange fluorescence after a systematic increase of temperature was monitored in the Roche LightCycler® 480 II device (Roche Diagnostics).
The capacity to stabilize α-L-iduronidase is denoted as follows: • ΔTm GALC > 1 is shown as A; • ΔTm GALC between 0.5 and 1 is shown as B; • ΔTm GALC between 0.1 and 0.5 is shown as C; and • ΔTm GALC less than 0.1 is shown as D.

[1] = commercially available Examples 8-37

## CN(CC(=O)Nc1ccccc1Cl)Cc1nc2ccsc2c(=O)[nH]1 [Example 12, N-(2-chlorophenyl)-2-(methyl((4-oxo-3,4-dihydrothieno[3,2-d]pyrimidin-2-yl)methyl)amino)acetamide]
[1]
  DSF Activity range: B (ΔTm GALC between 0.5 and 1 is shown as B)

## CN(CC(=O)N1Cc2ccccc2C1)Cc1nc2cc(F)ccc2c(=O)[nH]1 [Example 71, 7-fluoro-2-(((2-(isoindolin-2-yl)-2-oxoethyl)(methyl)amino)methyl)quinazolin-4(3H)-one]
Synthetized Examples 38-94
  DSF Activity range: A (ΔTm GALC > 1 is shown as A)

## Cc1csc2c(=O)[nH]c(CN(C)CC(=O)N(C)c3ccccc3Cl)nc12 [Example 41]
Synthetized Examples 38-94
  DSF Activity range: C (ΔTm GALC between 0.1 and 0.5 is shown as C)

## CN(CC(=O)Nc1cccc2ccccc12)Cc1nc2ccccc2c(=O)[nH]1 [Example 18, 2-(methyl((4-oxo-3,4-dihydroquinazolin-2-yl)methyl)amino)-N-(naphthalen-1-yl)acetamide]
[1]
  DSF Activity range: A (ΔTm GALC > 1 is shown as A)

## COc1ccccc1-n1ncc2c(O)nc(CN(C)CC(=O)N(C)c3ccccc3Cl)nc21 [Example 5, N-(2-chlorophenyl)-2-(((4-hydroxy-1-(2-methoxyphenyl)-1H-pyrazolo[3,4-d]pyrimidin-6-yl)methyl)(methyl)amino)-N-methylacetamide]
Synthetized Examples 1-7
  DSF Activity range: D (ΔTm GALC less than 0.1 is shown as D)

## Cc1cc2nc(CN(CC(=O)N(C)c3ccccc3Cl)C3CC3)[nH]c(=O)c2s1 [Example 47]
Synthetized Examples 38-94
  DSF Activity range: D (ΔTm GALC less than 0.1 is shown as D)

## CN(CC(=O)N(C)C)Cc1nc2c(cnn2C)c(=O)[nH]1 [Example 36, N,N-dimethyl-2-(methyl((1-methyl-4-oxo-4,5-dihydro-1H-pyrazolo[3,4-d]pyrimidin-6-yl)methyl)amino)acetamide]
[1]
  DSF Activity range: B (ΔTm GALC between 0.5 and 1 is shown as B)

## CN(CC(=O)Nc1cccc(F)c1)Cc1nc2c(cnn2C)c(=O)[nH]1 [Example 32, N-(3-fluorophenyl)-2-(methyl((1-methyl-4-oxo-4,5-dihydro-1H-pyrazolo[3,4-d]pyrimidin-6-yl)methyl)amino)acetamide]
[1]
  DSF Activity range: D (ΔTm GALC less than 0.1 is shown as D)

## CN(C(=O)CN(Cc1nc2cc(F)ccc2c(=O)[nH]1)C1CC1)c1ccccc1Cl [Example 65]
Synthetized Examples 38-94
  DSF Activity range: D (ΔTm GALC less than 0.1 is shown as D)

## CN(CC(=O)N1Cc2ccccc2C1)Cc1nc2c(cnn2C)c(=O)[nH]1 [Example 90]
Synthetized Examples 38-94
  DSF Activity range: C (ΔTm GALC between 0.1 and 0.5 is shown as C)

## CN(CC(=O)N(C)c1cccc(F)c1)Cc1nc2c(cnn2C)c(=O)[nH]1 [Example 94]
Synthetized Examples 38-94
  DSF Activity range: B (ΔTm GALC between 0.5 and 1 is shown as B)

## Cc1cc2nc(CN(C)CC(=O)N3CCc4ccccc43)[nH]c(=O)c2s1 [Example 52]
Synthetized Examples 38-94
  DSF Activity range: B (ΔTm GALC between 0.5 and 1 is shown as B)

## CN(CC(=O)Nc1cccc(F)c1)Cc1nc2ccsc2c(=O)[nH]1 [Example 9, N-(3-fluorophenyl)-2-(methyl((4-oxo-3,4-dihydrothieno[3,2-d]pyrimidin-2-yl)methyl)amino)acetamide]
[1]
  DSF Activity range: A (ΔTm GALC > 1 is shown as A)

## CN(CC(=O)N(C)c1cccc(F)c1)Cc1nc2cc(F)ccc2c(=O)[nH]1 [Example 77]
Synthetized Examples 38-94
  DSF Activity range: C (ΔTm GALC between 0.1 and 0.5 is shown as C)

## CN(C(=O)CN(Cc1nc2ccc(F)cc2c(=O)[nH]1)C1CC1)c1ccccc1Cl [Example 61]
Synthetized Examples 38-94
  DSF Activity range: D (ΔTm GALC less than 0.1 is shown as D)

## CCN(CC(=O)NCC(C)C)Cc1nc2ccccc2c(=O)[nH]1 [Example 26, 2-(ethyl((4-oxo-3,4-dihydroquinazolin-2-yl)methyl)amino)-N-isobutylacetamide]
[1]
  DSF Activity range: B (ΔTm GALC between 0.5 and 1 is shown as B)

## CCN(CC(=O)N(C)c1c(Cl)cccc1Cl)Cc1nc2c(C)csc2c(=O)[nH]1 [Example 49, N-(2,6-dichlorophenyl)-2-(ethyl((7-methyl-4-oxo-3,4-dihydrothieno[3,2-d]pyrimidin-2-yl)methyl)amino)-N-methylacetamide]
Synthetized Examples 38-94
  DSF Activity range: C (ΔTm GALC between 0.1 and 0.5 is shown as C)

## CCN(CC(=O)Nc1ccccc1)Cc1nc2ccccc2c(=O)[nH]1 [Example 19, 2-(ethyl((4-oxo-3,4-dihydroquinazolin-2-yl)methyl)amino)-N-phenylacetamide]
[1]
  DSF Activity range: C (ΔTm GALC between 0.1 and 0.5 is shown as C)

## CCN(CC(=O)Nc1cccc(OC)c1)Cc1nc2ccsc2c(=O)[nH]1 [Example 10, 2-(ethyl((4-oxo-3,4-dihydrothieno[3,2-d]pyrimidin-2-yl)methyl)amino)-N-(3-methoxyphenyl)acetamide]
[1]
  DSF Activity range: C (ΔTm GALC between 0.1 and 0.5 is shown as C)

## Cc1ccc2c(=O)[nH]c(CN(CC(=O)N(C)c3ccccc3Cl)C3CC3)nc2c1 [Example 83]
Synthetized Examples 38-94
  DSF Activity range: D (ΔTm GALC less than 0.1 is shown as D)

## CN(CC(=O)N1CCCC1)Cc1nc2c(cnn2C)c(=O)[nH]1 [Example 35, 1-methyl-6-((methyl(2-oxo-2-(pyrrolidin-1-yl)ethyl)amino)methyl)-1,5-dihydro-4H-pyrazolo[3,4-d]pyrimidin-4-one]
[1]
  DSF Activity range: B (ΔTm GALC between 0.5 and 1 is shown as B)

## CCCN(CC(=O)N(C)c1ccccc1Cl)Cc1nc2ccc(F)cc2c(=O)[nH]1 [Example 62]
Synthetized Examples 38-94
  DSF Activity range: B (ΔTm GALC between 0.5 and 1 is shown as B)

## COc1ccc(-n2ncc3c(O)nc(CN(C)CC(=O)N(C)c4ccccc4Cl)nc32)cc1 [Example 7, N-(2-chlorophenyl)-2-(((4-hydroxy-1-(4-methoxyphenyl)-1H-pyrazolo[3,4-d]pyrimidin-6-yl)methyl)(methyl)amino)-N-methylacetamide]
Synthetized Examples 1-7
  DSF Activity range: C (ΔTm GALC between 0.1 and 0.5 is shown as C)

## COCCNC(=O)CN(C)Cc1nc2c(cnn2C)c(=O)[nH]1 [Example 34, N-(2-methoxyethyl)-2-(methyl((1-methyl-4-oxo-4,5-dihydro-1H-pyrazolo[3,4-d]pyrimidin-6-yl)methyl)amino)acetamide]
[1]
  DSF Activity range: D (ΔTm GALC less than 0.1 is shown as D)

## CN(CC(=O)Nc1ccc(Cl)c(Cl)c1)Cc1nc2c(cnn2C)c(=O)[nH]1 [Example 30, N-(3,4-dichlorophenyl)-2-(methyl((1-methyl-4-oxo-4,5-dihydro-1H-pyrazolo[3,4-d]pyrimidin-6-yl)methyl)amino)acetamide]
[1]
  DSF Activity range: B (ΔTm GALC between 0.5 and 1 is shown as B)
